{"source": "patent US20220378786A1", "about": "“METHODS OF DEFINING FUNCTIONAL CHANGE AND SLOWING PROGRESSION IN CHRONIC LIVER DISEASE” (priority 2021, published 2022)", "test_system": "hepatic function and portal-systemic shunting in subjects with CLD", "experiment": "HepQuant SHUNT test (DSI and SHUNT %) relative to concomitant drug therapy in the SHUNT-V clinical study", "format": "in vivo, human", "conditions": "for Coefficient (Δ DSI score): multi-variable regression analysis of prescribed medications, Base DSI 27.0682; for ΔDSI: univariable regression analysis, 270 SHUNT-V subjects with CLD, on drug vs not on drug, lower DSI = better hepatic function", "from_the_text": "For example, a HepQuant® cholate liver function test (HepQuant, LLC) can be used to determine the presence and severity of liver diseases. A HepQuant® test can be a HepQuant® DSI test, HepQuant® SHUNT test or a HepQuant® STAT test. […] The term “SHUNT test” refers to a previously disclosed QLFT (quantitative liver function test) used as a comprehensive assessment of hepatic blood flow and liver function. The SHUNT test may be used to determine plasma clearance of orally and intravenously administered distinguishable cholic acids in subjects with and without chronic liver disease. SHUNT fraction or percent quantifies the spillover of the PO d4-cholate into the systemic circulation from the ratio of the clearance of the intravenously administered 13C-cholate to the clearance of the orally administered d4-cholate. In the SHUNT test, at least 5 blood samples are analyzed which have been drawn from a patient at intervals over a period of about 90 minutes after oral and intravenous administration of differentiable cholates. The SHUNT test is disclosed in Everson et al., U.S. Pat. […] The “SHUNT test value” refers to a number (in %). The term “SHUNT %” represents a quantitative measurement of portal-systemic shunting. SHUNT % is a measurement of the percentage of spillover of the orally administered d4-cholate. The first-pass hepatic elimination of cholate in percent of orally administered cholate is defined as (100%—SHUNT). Analysis of samples for stable isotopically labeled cholates is performed by, e.g., GC-MS, following sample derivitization, or LC-MS, without sample derivitization, or LC-MS/MS, or MS/MS. The ratio of the AUCs of orally to intravenously administered cholic acid, corrected for administered doses, defines cholate shunt. The cholate shunt can be calculated using the formula: AUCoral/AUCiv×Doseiv/Doseoral×100%, wherein AUCoral is the area under the curve of the serum concentrations of the orally adminstered cholic acid and AUCiv is the area under the curve of the intravenously administered cholic acid. The SHUNT test allows measurement of first-pass hepatic elimination of bile acids from the portal circulation. The term “DSI test” refers to a cholate Disease Severity Index test which is derived from one or more liver function test results based on hepatic blood flow. The DSI score is a function of the sum of cholate clearances from systemic and portal circulations adjusted to disease severity ranging from healthy subjects to end stage liver disease. DSI is a score without units representing a quantitative measurement of liver function. A disease severity index (DSI) value may be obtained in a patient by a method comprising (a) obtaining one or more liver function test values in a patient having or at risk of a chronic liver disease, wherein the one or more liver function test values are obtained from one or more liver function tests selected from the group consisting of SHUNT, portal hepatic filtration rate (portal HFR), and systemic hepatic filtration rate (systemic HFR); and (b) employing a disease severity index equation (DSI equation) to obtain a DSI value in the patient, wherein the DSI equation comprises one or more terms and a constant to obtain the DSI value, wherein at least one term of the DSI equation independently represents a liver function test value in the patient, or a mathematically transformed liver function test value in the patient from step; and the at least one term of the DSI equation is multiplied by a coefficient specific to the liver function test. DSI is an index, or score, that encompasses the cholate clearances from both systemic and portal circulations. DSI has a range from 0 (healthy) to 50 (severe end-stage disease) and is calculated from both HFRs. […] DSI test methods and equations are disclosed in U.S. Pat. Nos. 9,091,701, 9,759,731, 10,520,517, each of which is incorporated herein by reference in its entirety. Additional DSI equations have been developed and are provided herein.", "key": {"[1]": {"conditions": "ON-OFF drug, subset of 130 subjects taking anti-diabetic drug therapies (Table 6, FIG. 18)"}, "[2]": {"conditions": "multi-variable regression with statins, metformin, diabetes diagnosis and NASH diagnosis"}}, "data": [{"compound": "CN(C)C(=N)N=C(N)N", "note": "[Metformin, metformin]", "values": [{"measurement": "mean difference in DSI", "setting": "[1]", "result": "−2.4"}, {"measurement": "mean difference in SHUNT", "setting": "[1]", "result": "−7.4", "unit": "%"}, {"measurement": "Coefficient (Δ DSI score)", "result": "−2.2637"}, {"measurement": "Decline in DSI", "setting": "[2]", "result": "−2.4337"}, {"measurement": "Decline in SHUNT %", "setting": "[2]", "result": "−5.9", "unit": "%"}, {"measurement": "Resultant DSI", "setting": "multi-variable regression, Base DSI 27.0682 plus coefficients, cumulative down the table (metformin line includes the statin coefficient)", "result": 21.55}, {"measurement": "% Reduction in DSI", "setting": "multi-variable regression, relative to Base DSI 27.0682, cumulative down the table (metformin line includes statins)", "result": "−20.4", "unit": "%"}, {"measurement": "ΔDSI", "result": "−4.1777"}]}, {"compound": "CCc1ccc(CCOc2ccc(CC3SC(=O)NC3=O)cc2)nc1", "note": "(centres unmarked) [Pioglitazone]", "values": [{"measurement": "Coefficient (Δ DSI score)", "result": 0.2725}, {"measurement": "ΔDSI", "result": "−2.4995"}]}, {"compound": "Insulin: insulin, anti-diabetic drug therapy", "values": [{"measurement": "Coefficient (Δ DSI score)", "result": "−0.7947"}, {"measurement": "ΔDSI", "result": "−2.746"}]}, {"compound": "Vitamin E", "values": [{"measurement": "Coefficient (Δ DSI score)", "result": "−1.6505"}, {"measurement": "ΔDSI", "result": "−2.0475"}]}]}
